The target in experiment [1] is T1, human histone deacetylase.
T1 construct: The human histone deacetylase was partially purified from human T cell leukemia Jurkat cells
Nature of the experiment: Test 1: Determination of histone deacetylase inhibitor activity. It counts as biochemical. The conditions noted are these: partially purified human histone deacetylase from Jurkat cells; [3H] acetyl-labeled histones; 25° C., 30 minutes; read-out: Test 1: HDAC inhibitory activity IC50. How it is done: Test 1: Determination of Histone Deacetylase Inhibitor Activity
The partial purification of human histone deacetylase, the preparation of [^3H] acetyl histones, and the assay for histone deacetylase activity were performed basically according to the method as proposed by Yoshida et al. as follows.
Partial Purification of Human Histone Deacetylase
The human histone deacetylase was partially purified from human T cell leukemia Jurkat cells. Jurkat cells (5×10^8 cells) were suspended in 40 ml of the HDA buffer consisting of 15 mM potassium phosphate, pH 7.5, 5% glycerol and 0.2 mM EDTA. After homogenization, nuclei were collected by centrifugation (35,000×g, 10 min) and homogenized in 20 ml of the same buffer supplemented with 1 M (NH4)2SO4. The viscous homogenate was sonicated and clarified by centrifugation (35,000×g, 10 min), and the deacetylase was precipitated by raising the concentration of (NH4)2SO4 to 3.5 M. The precipitated protein was dissolved in 10 ml of the HDA buffer and dialyzed against 4 liters of the same buffer. The dialyzate was then loaded onto a DEAE-cellulose (Whatman DE52) column (25×85 mm) equilibrated with the same buffer and eluted with 300 ml of a linear gradient (0-0.6 M) of NaCl. A single peak of histone deacetylase activity appeared between 0.3 and 0.4 M NaCl.
Preparation of [^3H] Acetyl Histone
To obtain [^3H] acetyl-labeled histone as the substrate for the histone deacetylase assay, 1×10^8 cells of Jurkat in 20 ml of RPMI-1640 medium (supplemented with 10% FBS, penicillin (50 units/ml) and streptomycin (50 μg/ml)) were incubated with 300 MBq [^3H] sodium acetate in the presence of 5 mM sodium butyrate for 30 minutes in 5% CO2-95% air atmosphere at 37° C. in a 75 cm^2 flask, harvested into a centrifuge tube (50 ml), collected by centrifugation at 1000 rpm for 10 minutes, and washed once with phosphate-buffered saline. The washed cells were suspended in 15 ml of ice-cold lysis buffer (10 mM Tris-HCl, 50 mM sodium bisulfite, 1% Triton X-100, 10 mM MgCl2, 8.6% sucrose, pH 6.5). After Dounce homogenization (30 stroke), the nuclei were collected by centrifugation at 1000 rpm for 10 minutes, washed 3 times with 15 ml of the lysis buffer, and once with 15 ml of ice-cooled washing buffer (10 mM Tris-HCl, 13 mM EDTA, pH 7.4) successively. The pellet was suspended in 6 ml of ice-cooled water using a mixer, and 68 μl of H2SO4 was added to the suspension to give a concentration of 0.4 N. After incubation at 4° C. for 1 hour, the suspension was centrifuged for 5 minutes at 15,000 rpm, and the supernatant was taken and mixed with 60 ml of acetone. After overnight incubation at −20° C., the coagulated material was collected by microcentrifugation, air-dried, and stored at −80° C.
Assay for Histone Deacetylase Activity
For the standard assay, 10 μl of [^3H] acetyl-labeled histones were added to 90 μl of the enzyme fraction, and the mixture was incubated at 25° C. for 30 minutes. The reaction was stopped by addition of 10 μl of HCl. The released [^3H] acetic acid was extracted with 1 ml of ethyl acetate, and 0.9 ml of the solvent layer was taken into 10 ml of toluene scintillation solution for determination of radioactivity.

Experiment [2] relates to splenic cells of Lewis rats. Put plainly: Test 2: Determination of T-cell growth inhibitor activity (T lymphocyte blastogenesis test). It counts as cell-based. As to conditions: Lewis rat splenic cells, Concanavalin A (1 μg/ml), 72 hours, AlamarBlue Assay, read-out: Test 2: T-cell growth inhibitory activity IC50. How it is done:
Test 2: Determination of T-Cell Growth Inhibitor Activity
The T lymphocyte blastogenesis test was performed in microtiter plates with each well containing 1.5×10^5 splenic cells of Lewis rats in 0.1 ml RPMI-1640 medium supplemented with 10% fetal bovine serum (FBS), […] 2-mercaptoethanol, penicilln (100 units/ml) and streptomycin (100 μg/ml), to which Concanavalin A (1 μg/ml) was added. The cells were incubated at 37° C. in a humidified atmosphere of 5% CO2 for 72 hours. After the culture period, suppressive activities of the test compounds in T lymphocyte blastogenesis were quantified by AlamarBlue (trademark) Assay. The test samples were dissolved in DMSO and further diluted with RPMI-1640 medium and added to the culture. The activities of the test compounds were expressed as IC50.
On the technique in general: Alamar Blue is a resazurin reagent that responds to reducing activity.

Experiment [3] concerns TNFα induced NF-κB activation. Put plainly: Test 3: NF-κB reporter gene assay in TNFα-stimulated HEL cells. It counts as cell-based. As to conditions: HEL cells transfected with pNFκB-TA-Luc, TNFα (10 ng/ml); at doses up to 3 nM; FIG. 2. As to the method: Test 3: Effect of HDAC Inhibitor on TNFα Induced NF-κB Activation 8.75×10^6 HEL cells (JCRB0062, JCRB) were transfected with 10 μg of pNFκB-TA-Luc (Clontech, as shown in FIG. 1) by electroporation at 1750 V and 10 μF with Gene Pulser II (BIO-RAD). The cells were resuspended in 2 ml of RPMI1640 (SIGMA) supplemented with 10% FBS (MOREGATE) and aliquated 50 μl each well in 96-well tissue culture plates. After 5 hr culture at 37° C., 5% CO2, for cell function recovery, the cells were cultured in the presence or absence of TNFα (10 ng/ml) for 4 hr. TNFα stimulated cells were incubated with Compound E138 or FK506 (commercial available immunosuppresive agent, also referred as Tacrolimus) at appropriate concentrations for 1 hour prior to stimulation. For the NF-κB reporter gene assay, the transfected cells were lysed and assayed for luciferase activity with the Bright-glo Luciferase Assay System (Promega) according to the manufacturer's instructions.
In general terms: A reporter such as luciferase makes a cellular process visible.

The test system of experiment [4] is MCP-1 production by activated THP-1 cells. Put plainly: Test 4: MCP-1 production by activated THP-1 cells (MCP-1 ELISA). The experiment is classed as cell-based, human. The conditions noted are these: PMA 50 ng/mL 16 hours, compound 9 hr, at doses up to 1 nM, FIG. 3. As to the method:
Test 4: Effect of HDAC Inhibitor on MCP-1 Production by Activated THP-1 Cells For the measurement of MCP-1 level by ELISA, 1×10^6 THP-1 cells (JCRB0112, JCRB) were plated in 6-well tissue culture plates. The cells were cultured in RPMI1640 (SIGMA) supplemented with 10% FBS (MOREGATE) in the presence of PMA (SIGMA, 50 ng/mL) for 16 hours at 37° C., 5% CO2. After incubation, the medium was changed to RPMI1640 supplemented with 2% FBS and various concentrations of Compound E138 or FK506 were added. The cells were further cultured for 9 hr and the amount of MCP-1 protein secreted by activated THP-1 cells into the medium was determined by […] Immuno assay System human MCP-1 (Genzyme Techne) according to the manufacturer's instructions.
A general note: ELISA stands for enzyme-linked immunosorbent assay.

Experiment [5] deals with IL-2 mRNA expression in activated Jurkat cells. Put plainly: IL-2 mRNA expression in activated Jurkat cells. The conditions noted are these: at 1 nM. It counts as cell-based, human.

Square brackets hold non-standard residues; d marks the D form. Peptide text beside a SMILES is read from it. Aoda(9S-OH) = C[C@H](O)C(=O)CCCCC[C@H](N)C(=O)O; Phe(4-CN) = N#Cc1ccc(C[C@H](N)C(=O)O)cc1; Iva = CC[C@](C)(N)C(=O)O

As for `CC[C@]1(C)NC(=O)[C@H](CCCCCC(=O)[C@@H](C)O)NC(=O)[C@H]2CCCN2C(=O)[C@H](Cc2ccc(OCc3ccccc3)cc2)NC1=O` [Compound E6], the IC50 in experiment [1] is less than 100 nM; in experiment [2] it was less than 50 nM.

For `CC[C@]1(C)NC(=O)[C@H](CCCCCC(=O)[C@@H](C)O)NC(=O)[C@H]2CCCN2C(=O)[C@H](Cc2ccc(O)cc2)NC1=O` [Compound E8], the IC50 was less than 100 nM in experiment [1] and less than 50 nM in experiment [2].

Consider `CC[C@]1(C)NC(=O)[C@H](CCCCCC(=O)[C@@H](C)O)NC(=O)[C@H]2CCCN2C(=O)[C@H](Cc2ccc(OC)cc2)NC1=O` [Compound E13], for which the concentration for half-maximal inhibition (IC50) in experiment [1] is less than 100 nM; in experiment [2] it was less than 50 nM.

Regarding `CC[C@]1(C)NC(=O)[C@H](CCCCCC(=O)[C@@H](C)O)NC(=O)[C@H]2CCCN2C(=O)[C@H](Cc2ccc(F)cc2)NC1=O` [Compound E17], the IC50 was less than 100 nM in experiment [1] and less than 50 nM in experiment [2].

Turning to `CC[C@]1(C)NC(=O)[C@H](CCCCCC(=O)[C@H](C)O)NC(=O)[C@H]2CCCN2C(=O)[C@H](Cc2ccc(C#N)cc2)NC1=O` [Compound E23] (cyclo([Iva][Phe(4-CN)][dP][Aoda(9S-OH)])), the IC50 was less than 100 nM in experiment [1] and less than 50 nM in experiment [2].

Turning to `CCOc1ccc(C[C@@H]2NC(=O)[C@](C)(CC)NC(=O)[C@H](CCCCCC(=O)[C@@H](C)O)NC(=O)[C@H]3CCCN3C2=O)cc1` [Compound E26], the IC50 was less than 100 nM in experiment [1] and less than 50 nM in experiment [2].

On to `CC[C@]1(C)NC(=O)[C@H](CCCCCC(=O)[C@@H](C)O)NC(=O)[C@H]2CCCN2C(=O)[C@H](Cc2ccccc2F)NC1=O` [Compound E33], for which the concentration for half-maximal inhibition (IC50) in experiment [1] was less than 100 nM; in experiment [2], less than 50 nM.

For `CC[C@@H](O)C(=O)CCCCC[C@@H]1NC(=O)[C@H]2CCCN2C(=O)[C@H](Cc2ccccc2F)NC(=O)[C@](C)(CC)NC1=O` [Compound E35], the values for the IC50 in experiment [1] and in experiment [2] were less than 100 nM and less than 50 nM, respectively.

For the compound `CC[C@]1(C)NC(=O)[C@H](CCCCCC(=O)[C@@H](C)O)NC(=O)[C@H]2CCCN2C(=O)[C@H](Cc2ccc(Cl)cc2)NC1=O` [Compound E38], the IC50 in experiment [1] was less than 100 nM; in experiment [2], less than 50 nM.

For `CCC1(CC)NC(=O)[C@H](CCCCCC(=O)[C@@H](C)O)NC(=O)[C@H]2CCCN2C(=O)[C@H](Cc2ccccc2)NC1=O` [Compound E41], the values for the 50% inhibitory concentration (IC50) in experiment [1] and in experiment [2] were less than 100 nM and less than 50 nM, respectively.

As for `CC[C@@H](O)C(=O)/C=C/CCC[C@@H]1NC(=O)[C@H]2CCCN2C(=O)[C@H](Cc2ccccc2)NC(=O)[C@](C)(CC)NC1=O` [Compound E48], the IC50 in experiment [1] was less than 100 nM; in experiment [2] it was less than 50 nM.

Take `C=CC[C@@H]1/C=C(\C)C[C@H](C)C[C@H](OC)[C@H]2O[C@@](O)(C(=O)C(=O)N3CCCC[C@H]3C(=O)O[C@H](/C(C)=C/[C@@H]3CC[C@@H](O)[C@H](OC)C3)[C@H](C)[C@@H](O)CC1=O)[C@H](C)C[C@@H]2OC` [FK506, Tacrolimus]: the “effect on TNFα induced NF-κB activation” value in experiment [3] is recorded as “no direct effect”. Also, in experiment [4], the “effect on MCP-1 production by activated THP-1 cells” value is “no direct effect”. Further, the “inhibition of IL-2 mRNA expression” value in experiment [5] is given as “almost completely inhibits”.

Broadly, the IC50 is the point on the concentration scale where inhibition reaches its midpoint.

Values taken from patent publication US20060229236A1, “Cyclic tetrapeptide compound and use thereof” (FUJISAWA PHARMACEUTICAL Co. LTD., priority 2001, published 2006).
